Assay results taken from patent US20260083865A1, “PROSTATE SPECIFIC MEMBRANE ANTIGEN (PSMA) LIGANDS AND USE THEREOF” (priority 2022, published 2026).
Numbered stars: 1 amine (or outer) side, 2 acyl side, 3 side chain; on linkers, the order of the positions; unused ones are H or OH. Bridge positions count the residues as written; N and C are the ends. Square brackets hold non-standard residues; d marks the D form. Side chains are listed from the residue outwards. Peptide text beside a SMILES is read from it. * marks the point of attachment. TtdsdLys(DOTA)NH2 = NC(=O)[C@@H](CCCCNC(=O)CN1CCN(CC(=O)O)CCN(CC(=O)O)CCN(CC(=O)O)CC1)NC(=O)CCC(=O)NCCCOCCOCCOCCCN*; X11 = O=C(CCCC[C@@H]1SC[C@@H]2NC(=O)N[C@@H]21)NCCCOCCOCCOCCCNC(=O)CCC(=O)NCCCOCCOCCOCCCN*; DOTA = O=C(O)CN1CCN(CC(=O)O)CCN(CC(=O)*)CCN(CC(=O)O)CC1; X16 = CNC(=N)N(C)CCC[C@H](N[*:1])C(=O)[*:2]; Phe(3-Cl) = N[C@@H](Cc1cccc(Cl)c1)C(=O)O; Phe(4-Cl) = N[C@@H](Cc1ccc(Cl)cc1)C(=O)O; X1 = O=C(CC1CCN([*:1])CC1)[*:2]; Cit = NC(=O)NCCC[C@H](N)C(=O)O; Lys(Me) = CNCCCC[C@H](N)C(=O)O; NMeN = CN[C@@H](CC(N)=O)C(=O)O; Suc = O=C(CCC(=O)[*:2])[*:1]; Tle = CC(C)(C)[C@H](N)C(=O)O; 4Amb = NCc1ccc(C(=O)O)cc1; Nle = CCCC[C@H](N)C(=O)O; Hexanoyl = CCCCCC(=O)*; Aib = CC(C)(N)C(=O)O; Ahx = NCCCCCC(=O)O; βAla = NCCC(=O)O

Tests used:
[1] = target: T1, Fc-fusion protein of human PSMA (hPSMA-Fc) (Homo sapiens, UniProt Q04609); assay: Surface plasmon resonance assay (Biacore T200, single cycle kinetic); type: binding; conditions: PSMA SPR assay, category; read-out: pKD CAT (converted)
T1 construct: purchased Acro Biosystems PSA-H5264
Outline: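 KD, expressed as pKD, came from 1:1 Langmuir fits of reference- and buffer-blank-subtracted SPR data. The runs were single-cycle kinetics at 25° C in HBST/0.1% DMSO over human PSMA-Fc, captured to ~1000 RU on a peptide-coated CM5 surface and regenerated with 10 mM glycine pH 1.5.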

[2] = target: T2, PSMA-expressing C4-2 cells (Homo sapiens, UniProt Q04609); assay: FACS binding assay (competition with 50 nM PSM-0183); conditions: FACS binding, C4-2 cells, category; read-out: pIC50 [C4-2] CAT (converted)
T2 construct: PSMA-expressing C4-2 cells (ATCC, Cat. No. CRL-3314) were cultured in RPMI-1640; host or cells: C4-2 cells
Outline: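 Competition format: fluorescent tracer PSM-0183 (50 nM) displaced from PSMA on C4-2 cells by a test compound titration over 1 h at 4 °C. Bound tracer was quantified as flow-cytometric AF488 median fluorescence after washing. Four-parameter logistic fits of MFI data gave IC50 and pIC50.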

T1 sequence (Q04609 44-750 limits assumed): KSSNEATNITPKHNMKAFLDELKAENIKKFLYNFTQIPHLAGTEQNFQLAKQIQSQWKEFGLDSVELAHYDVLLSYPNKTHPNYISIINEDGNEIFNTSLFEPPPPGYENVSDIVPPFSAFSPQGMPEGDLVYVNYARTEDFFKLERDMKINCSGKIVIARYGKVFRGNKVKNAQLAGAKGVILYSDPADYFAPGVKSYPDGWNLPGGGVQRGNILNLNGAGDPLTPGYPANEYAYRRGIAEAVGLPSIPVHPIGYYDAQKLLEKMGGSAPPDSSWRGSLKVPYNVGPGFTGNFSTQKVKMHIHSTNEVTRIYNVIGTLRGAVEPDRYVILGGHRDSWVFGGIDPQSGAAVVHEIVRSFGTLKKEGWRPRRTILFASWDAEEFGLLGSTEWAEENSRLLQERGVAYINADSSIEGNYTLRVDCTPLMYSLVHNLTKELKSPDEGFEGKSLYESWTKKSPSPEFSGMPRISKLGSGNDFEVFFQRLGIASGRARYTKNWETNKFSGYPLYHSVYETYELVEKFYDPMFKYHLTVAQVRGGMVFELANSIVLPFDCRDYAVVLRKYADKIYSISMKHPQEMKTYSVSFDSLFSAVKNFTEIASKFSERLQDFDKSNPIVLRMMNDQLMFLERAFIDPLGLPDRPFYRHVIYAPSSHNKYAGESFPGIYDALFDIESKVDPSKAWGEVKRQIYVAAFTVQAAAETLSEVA
T2 sequence (Q04609 whole entry): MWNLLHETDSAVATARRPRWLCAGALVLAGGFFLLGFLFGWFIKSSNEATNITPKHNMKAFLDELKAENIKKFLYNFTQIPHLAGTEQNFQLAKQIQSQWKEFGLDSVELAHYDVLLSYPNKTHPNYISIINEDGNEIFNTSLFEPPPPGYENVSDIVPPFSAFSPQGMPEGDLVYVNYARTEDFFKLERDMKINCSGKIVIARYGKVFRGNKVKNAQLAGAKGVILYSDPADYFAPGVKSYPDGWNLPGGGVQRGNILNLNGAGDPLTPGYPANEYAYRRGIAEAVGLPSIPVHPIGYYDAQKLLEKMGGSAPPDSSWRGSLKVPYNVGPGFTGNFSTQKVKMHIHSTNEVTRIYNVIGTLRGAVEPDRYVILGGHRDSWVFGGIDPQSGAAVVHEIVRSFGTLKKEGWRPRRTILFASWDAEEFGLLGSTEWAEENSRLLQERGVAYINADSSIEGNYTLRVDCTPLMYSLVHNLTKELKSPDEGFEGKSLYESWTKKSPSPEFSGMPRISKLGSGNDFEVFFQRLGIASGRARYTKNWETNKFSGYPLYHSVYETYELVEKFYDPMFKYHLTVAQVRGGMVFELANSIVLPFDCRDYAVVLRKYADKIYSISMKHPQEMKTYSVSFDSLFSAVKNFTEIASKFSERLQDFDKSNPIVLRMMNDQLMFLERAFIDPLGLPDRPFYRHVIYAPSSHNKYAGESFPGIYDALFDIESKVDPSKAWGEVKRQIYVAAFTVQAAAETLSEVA

SMILES | Kd [1] | IC50 [2]
CC(C)(NC(=O)c1ccc(CNC(=O)CN2CCN(CC(=O)O)CCN(CC(=O)O)CCN(CC(=O)O)CC2)cc1)C(=O)N[C@@H](Cc1ccccc1)C(=O)N[C@H]1CSSC[C@@H](C(=O)N[C@H](C(=O)NCCC(N)=O)C(C)(C)C)NC(=O)[C@H](CC(N)=O)NC(=O)C(C)(C)NC(=O)[C@H](CCCNC(=N)N)NC(=O)[C@H](CCCCN)NC1=O [PSM-0574, DOTA-Pamb-Aib-Phe-[Cys-Lys-Arg-Aib-Asn-Cys]-Tle-Bal-NH2] ({DOTA-4Amb}-[Aib]FCKR[Aib]NC[Tle][βAla]-NH2; disulfide 3-8) | 12.6 to 126 nM | < 200 nM
C[C@@H](O)[C@H](NC(=O)[C@@H](NC(=O)[C@@H]1CSSC[C@H](NC(=O)[C@H](Cc2ccc(Cl)cc2)NC(=O)C(C)(C)NC(=O)[C@@H](NC(=O)CCC(=O)NCCCOCCOCCOCCCNC(=O)CCC(=O)NCCCOCCOCCOCCCNC(=O)CCCC[C@@H]2SC[C@@H]3NC(=O)N[C@@H]32)[C@@H](C)O)C(=O)N[C@@H](CCCCN)C(=O)N[C@@H](CCCNC(=N)N)C(=O)NC(C)(C)C(=O)N[C@@H](CC(N)=O)C(=O)N1)C(C)(C)C)C(N)=O [PSM-0575, Bio-Ttds-Ttds-Thr-Aib-Pcf-[Cys-Lys-Arg-Aib-Asn-Cys]-Tle-Thr-NH2] ({X11-Suc}-T[Aib][Phe(4-Cl)]CKR[Aib]NC[Tle]T-NH2; disulfide 4-9) | < 12.6 nM | < 200 nM
CCCCCC(=O)N[C@H](C(=O)NC(C)(C)C(=O)N[C@@H](Cc1ccccc1)C(=O)N[C@H]1CSSC[C@@H](C(=O)N[C@H](C(=O)N[C@H](C(=O)NCCCOCCOCCOCCCNC(=O)CCC(=O)N[C@H](CCCCNC(=O)CN2CCN(CC(=O)O)CCN(CC(=O)O)CCN(CC(=O)O)CC2)C(N)=O)[C@@H](C)O)C(C)(C)C)NC(=O)[C@H](CC(N)=O)NC(=O)C(C)(C)NC(=O)[C@H](CCCNC(=N)N)NC(=O)[C@H](CCCCN)NC1=O)[C@@H](C)O [PSM-0576, Hex-Thr-Aib-Phe-[Cys-Lys-Arg-Aib-Asn-Cys]-Tle-Thr-Ttds-lys(DOTA)-NH2] (Hexanoyl-T[Aib]FCKR[Aib]NC[Tle]T-{TtdsdLys(DOTA)NH2}; disulfide 4-9) | < 12.6 nM | < 200 nM
C[C@@H](O)[C@H](NC(=O)[C@@H](NC(=O)[C@@H]1CSSC[C@H](NC(=O)[C@H](Cc2ccccc2)NC(=O)C(C)(C)NC(=O)CCC(=O)O)C(=O)N[C@@H](CCCCN)C(=O)N[C@@H](CCCNC(=N)N)C(=O)NC(C)(C)C(=O)N[C@@H](CC(N)=O)C(=O)N1)C(C)(C)C)C(N)=O [PSM-0577, HO-Succinyl-Aib-Phe-[Cys-Lys-Arg-Aib-Asn-Cys]-Tle-Thr-NH2] (Suc-[Aib]FCKR[Aib]NC[Tle]T-NH2; disulfide 3-8) | 12.6 to 126 nM | < 200 nM
CCCC[C@H](NC(=O)[C@@H]1CSSC[C@H](NC(=O)[C@H](Cc2ccccc2)NC(=O)[C@H](C)NC(=O)[C@@H](NC(C)=O)[C@@H](C)O)C(=O)N[C@@H](CCCCN)C(=O)N[C@@H](CCCNC(=N)N)C(=O)NC(C)(C)C(=O)N[C@@H](CC(N)=O)C(=O)N1)C(=O)N[C@H](C(=O)N[C@@H](CC(=O)O)C(N)=O)[C@@H](C)O [PSM-0578, Ac-Thr-Ala-Phe-[Cys-Lys-Arg-Aib-Asn-Cys]-Nle-Thr-Asp-NH2] (Ac-TAFCKR[Aib]NC[Nle]TD-NH2; disulfide 4-9) | 12.6 to 126 nM | < 200 nM
CCCC[C@H](NC(=O)[C@@H]1CSSC[C@H](NC(=O)[C@H](Cc2ccccc2)NC(=O)[C@H](C)NC(=O)[C@@H](NC(C)=O)[C@@H](C)O)C(=O)N[C@@H](CCCCN)C(=O)N[C@@H](C)C(=O)N[C@@H](C)C(=O)N[C@@H](CC(N)=O)C(=O)N1)C(=O)N[C@H](C(=O)N[C@@H](CC(=O)O)C(N)=O)[C@@H](C)O [PSM-0581, Ac-Thr-Ala-Phe-[Cys-Lys-Ala-Ala-Asn-Cys]-Nle-Thr-Asp-NH2] (Ac-TAFCKAANC[Nle]TD-NH2; disulfide 4-9) | > 501 nM | 1260 to 3160 nM
CC(=O)N[C@H](C(=O)NC(C)(C)C(=O)N[C@@H](Cc1ccccc1)C(=O)N[C@H]1CSSC[C@@H](C(=O)N[C@H](C(=O)N[C@H](C(N)=O)[C@@H](C)O)C(C)(C)C)NC(=O)[C@H](CC(N)=O)NC(=O)[C@H](CCCCNC(=O)CCCCCNC(=O)CN2CCN(CC(=O)O)CCN(CC(=O)O)CCN(CC(=O)O)CC2)NC(=O)[C@H](CCCNC(N)=O)NC(=O)[C@H](CCCCN)NC1=O)[C@@H](C)O [PSM-0582, Ac-Thr-Aib-Phe-[Cys-Lys-Arg-Lys(DOTA-Ahx)-Asn-Cys]-Tle-Thr-NH2] (Ac-T[Aib]FCK[Cit]K([Ahx-DOTA])NC[Tle]T-NH2; disulfide 4-9) | < 12.6 nM | < 200 nM
C[C@@H](O)[C@H](NC(=O)[C@@H](NC(=O)[C@@H]1CSSC[C@H](NC(=O)[C@H](Cc2cccc(Cl)c2)NC(=O)C(C)(C)NC(=O)[C@@H](NC(=O)CC2CCN(C(=O)CN3CCN(CC(=O)O)CCN(CC(=O)O)CCN(CC(=O)O)CC3)CC2)[C@@H](C)O)C(=O)N[C@@H](CCCCN)C(=O)N[C@@H](CCCNC(=N)N)C(=O)NC(C)(C)C(=O)N[C@@H](CC(N)=O)C(=O)N1)C(C)(C)C)C(N)=O [PSM-0583, DOTA-Cmp-Thr-Aib-Mcf-[Cys-Lys-Arg-Aib-Asn-Cys]-Tle-Thr-NH2] ({DOTA}-[X1]T[Aib][Phe(3-Cl)]CKR[Aib]NC[Tle]T-NH2; disulfide 5-10) | < 12.6 nM | < 200 nM
CC(=O)N[C@H](C(=O)NC(C)(C)C(=O)N[C@@H](Cc1ccc(Cl)cc1)C(=O)N[C@H]1CSSC[C@@H](C(=O)N[C@H](C(=O)N[C@H](C(N)=O)[C@@H](C)O)C(C)(C)C)NC(=O)[C@H](CC(C)C)NC(=O)C(C)(C)NC(=O)[C@H](CCCNC(=N)N)NC(=O)[C@H](CCCCN)NC1=O)[C@@H](C)O [PSM-0584, Ac-Thr-Aib-Pcf-[Cys-Lys-Cit-Aib-Leu-Cys]-Tle-Thr-NH2] (Ac-T[Aib][Phe(4-Cl)]CKR[Aib]LC[Tle]T-NH2; disulfide 4-9) | < 12.6 nM | < 200 nM
C[C@@H]1NC(=O)[C@H](CCCNC(=N)N)NC(=O)[C@H](CCCCN)NC(=O)[C@@H](NC(=O)[C@H](Cc2ccc(Cl)cc2)NC(=O)C(C)(C)NC(=O)[C@@H](NC(=O)CC2CCN(C(=O)CN3CCN(CC(=O)O)CCN(CC(=O)O)CCN(CC(=O)O)CC3)CC2)[C@@H](C)O)CSSC[C@@H](C(=O)N[C@H](C(=O)N[C@H](C(N)=O)[C@@H](C)O)C(C)(C)C)NC(=O)[C@H](CC(N)=O)N(C)C1=O [PSM-0585, DOTA-Cmp-Thr-Aib-Pcf-[Cys-Lys-Arg-Ala-Nmn-Cys]-Tle-Thr-NH2] ({DOTA}-[X1]T[Aib][Phe(4-Cl)]CKRA[NMeN]C[Tle]T-NH2; disulfide 5-10) | 12.6 to 126 nM | < 200 nM
CCCC[C@H](NC(=O)[C@@H]1CSSC[C@H](NC(=O)[C@H](C)NC(=O)[C@H](C)NC(=O)[C@@H](NC(C)=O)[C@@H](C)O)C(=O)N[C@@H](CCCCN)C(=O)N[C@@H](CCCNC(=N)N)C(=O)N[C@@H](C)C(=O)N[C@@H](CC(N)=O)C(=O)N1)C(=O)N[C@H](C(=O)N[C@@H](CC(=O)O)C(N)=O)[C@@H](C)O [PSM-0586, Ac-Thr-Ala-Ala-[Cys-Lys-Arg-Ala-Asn-Cys]-Nle-Thr-Asp-NH2] (Ac-TAACKRANC[Nle]TD-NH2; disulfide 4-9) | > 501 nM | > 3160 nM
CC(=O)N[C@H](C(=O)NC(C)(C)C(=O)N[C@@H](Cc1c[nH]c2ccccc12)C(=O)N[C@H]1CSSC[C@@H](C(=O)N[C@H](C(=O)N[C@H](C(=O)N[C@@H](CC(=O)O)C(N)=O)[C@@H](C)O)C(C)(C)C)NC(=O)[C@H](CC(N)=O)NC(=O)C(C)(C)NC(=O)[C@H](CCCNC(=N)N)NC(=O)[C@H](CCCCN)NC1=O)[C@@H](C)O [PSM-0587, Ac-Thr-Aib-Trp-[Cys-Lys-Arg-Aib-Asn-Cys]-Tle-Thr-Asp-NH2] (Ac-T[Aib]WCKR[Aib]NC[Tle]TD-NH2; disulfide 4-9) | < 12.6 nM | < 200 nM
CC(=O)N[C@H](C(=O)NC(C)(C)C(=O)N[C@@H](Cc1ccccc1)C(=O)N[C@H]1CSSC[C@@H](C(=O)N[C@H](C(=O)N[C@H](C(N)=O)[C@@H](C)O)C(C)(C)C)NC(=O)[C@H](Cc2c[nH]c3ccccc23)NC(=O)C(C)(C)NC(=O)[C@H](CCCNC(=N)N)NC(=O)[C@H](CCCCN)NC1=O)[C@@H](C)O [PSM-0589, Ac-Thr-Aib-Phe-[Cys-Lys-Arg-Aib-Trp-Cys]-Tle-Thr-NH2] (Ac-T[Aib]FCKR[Aib]WC[Tle]T-NH2; disulfide 4-9) | < 12.6 nM | < 200 nM
CNCCCC[C@@H]1NC(=O)[C@@H](NC(=O)[C@H](Cc2ccc(Cl)cc2)NC(=O)C(C)(C)NC(=O)[C@@H](NC(=O)CC2CCN(C(=O)CN3CCN(CC(=O)O)CCN(CC(=O)O)CCN(CC(=O)O)CC3)CC2)[C@@H](C)O)CSSC[C@@H](C(=O)N[C@H](C(=O)N[C@H](C(N)=O)[C@@H](C)O)C(C)(C)C)NC(=O)[C@H](CC(N)=O)NC(=O)C(C)(C)NC(=O)[C@H](CCCN(C)C(=N)NC)NC1=O [PSM-0590, DOTA-Cmp-Thr-Aib-Pcf-[Cys-Lys(Me)-RMe2a-Aib-Asn-Cys]-Tle-Thr-NH2] ({DOTA}-[X1]T[Aib][Phe(4-Cl)]C[Lys(Me)][X16][Aib]NC[Tle]T-NH2; disulfide 5-10) | < 12.6 nM | < 200 nM
